These results are taken from publication PMC10666625, “Exploring the benefits of in-diet versus repeated oral dosing of saracatinib (AZD0530) in chronic studies: insights into pharmacokinetics and animal welfare” (Frontiers in Veterinary Science, 2023).

Some results are limits rather than exact numbers.

Data set [1] relates to kainate (KA) model of temporal lobe epilepsy. On the set-up: method as in PMID 34087381. The settings on record: treating for a week, repeated oral dosing; cited from earlier work.
A short description of data set [2]: Serum pharmacokinetics after a single oral dose (24 h study), LC-MS/MS, noncompartmental analysis. The format is in vivo, Sprague Dawley rats. The protocol: Twenty eight adult male Sprague Dawley rats (8 weeks old; 250-300 g; Charles River, United States) were used in the study. Animals were housed in individual cages with a 12-h light–dark cycle in an enriched environment. The experiments were conducted after 2–3 days of acclimatization as per the approved protocols by the Institutional Animal Care and Use Committees (IACUC protocol: 21–109) and complied with the NIH ARRIVE Guidelines for the Care and Use of Laboratory Animals. Blood sampling was done by retro-orbital puncture as per IACUC protocol. Maximal blood collection was limited to less than 7.5% of the […] in one week. The serum was separated by centrifugation at 1,000–1,500 × g for 10 min and stored at −80°C until further analysis. All animals were euthanized at the end of the study with pentobarbital sodium and phenytoin sodium (100 mg/kg, i.p.) as per the American Veterinary Medical Association Guidelines for euthanasia. Tissue samples were collected and stored at −80°C until further analysis.
(§1) The animals were randomized into four experimental groups (n = 4–8). In group 1 (24 h study; Figure 1A), eight animals received a single oral gavage of saracatinib (20 mg/kg), and the blood sampling was done at 0.5, 1, 2, 4, 6, 8, 12, and 24 h post-treatment. Four animals each were euthanized at 4 h and 24 h, respectively. In group 2 (7-day repeated oral dosing study; Figure 1B), eight animals received repeated daily oral dosing of saracatinib (20 mg/kg of rat) at 24 h intervals; the blood sampling was done daily at 24 h intervals before the next dosing. Four animals were euthanized 24 h after the third repeated oral dosing, i.e., day 3 and the other four animals were euthanized at day 7. Group 3 (7-day SAR-in-Diet study; Figure 1C), received a single oral gavage of saracatinib (20 mg/kg of rat) followed by 24 h later SAR-in-Diet for 7 days (260 ppm). The blood sampling was done at 24 h post oral and daily at 24 h intervals for 7 days while the animals were on SAR-in-Diet. Four animals each were euthanized on day 3 and 7. Group 4 (Figure 1D) included four animals that were given 7 repeated doses of oral saracatinib (20 mg/kg/day for a week) followed by ad-libitum SAR-in-Diet at varying concentrations fed for up to 18 weeks (260 ppm diet for 2 weeks, 210 ppm diet for a week, 160 ppm for 4 weeks, and 50 ppm diet for 11 weeks) The tapering concentrations of saracatinib in the diet from 260 to 50 ppm was done to target a daily saracatinib dose rate in the range of 20–5 mg/kg respectively, in a 24 h feeding cycle. Blood samples were collected at the end of each diet change.
Samples were submitted to the W.M. Keck Metabolomics Research Laboratory (Office of Biotechnology, Iowa State University, Ames, IA) for targeted saracatinib LC–MS/MS quantification. Serum and hippocampus preparations were conducted using a modified version of the previously available extraction and sample preparation methods previously established ([18], [19]). 50–75 μL or 50–75 mg wet weight of each sample was added to microcentrifuge tubes. A Reagent control sample was generated for each sample batch, 75 μL of 0.9% NaCl which was extracted in the same fashion as the samples. The weighed samples were then spiked with the internal standard, 1.25 μg of S-Hexylglutathione (Sigma-Aldrich CO., St. Louis, MO), added as 10 μL of from a 0.125 mg/mL solution in LC–MS grade 9:1 methanol: acetonitrile (Fisher Scientific, Waltham, MA). The extraction was initiated by the addition of 0.4 mL of 90% ice-cold LC–MS grade methanol with 10% LC–MS grade water (Fisher Scientific, Waltham, MA). For the hippocampus samples, after adding the 90% methanol to the samples, two 2.4 mm metal beads were added to each sample, the tissue was then homogenized using a Bead Mill 24 Homogenizer (Thermo Fisher Scientific, Inc., Waltham, MA, United States). […]

Data set [3] in a line: Stability at room temperature in solution or in diet by LC-MS/MS. It counts as physicochemical. As to the method:
Samples were submitted to the W.M. Keck Metabolomics Research Laboratory (Office of Biotechnology, Iowa State University, Ames, IA) for targeted saracatinib LC–MS/MS quantification. One or two food pellets (1.5–3 g) were homogenized by mortar-and-pestle before being transferred and weighed in glass tubes with Teflon-lined screw caps. A reagent control sample was generated for each sample batch which was prepared in the same fashion as the samples. The weighed samples were then spiked with the internal standard, 250 μg of S-Hexylglutathione (Sigma-Aldrich CO., St. Louis, MO), added as 1.0 mL of from a 0.25 mg/mL solution in LC–MS grade 9:1 methanol: acetonitrile (Fisher Scientific, Waltham, MA). The extraction was initiated by the addition of 8 mL of 90% LC–MS grade methanol with 10% LC–MS grade water (Fisher Scientific, Waltham, MA). […]
LC separations were performed with an Agilent Technologies 1,290 Infinity Binary Pump UHPLC instrument equipped with an Agilent Technologies Eclipse C18 1.8 μm 2.1 mm × 100 mm analytical column that was coupled to an Agilent Technologies 6,540 UHD Accurate-Mass Q-TOF mass spectrometer (Agilent Technologies, Santa Clara, CA). […] Saracatinib was detected using electrospray ionization in positive ionization mode. […] During LC–MS data acquisition, reference masses were monitored for continuous mass calibration: m/z 121.050873 with m/z 922.009698. […]

On the set-up of data set [4]: method as in PMID 19775203. Conditions: healthy humans, 250 mg/day once daily for 10–14 days; cited from earlier work.
Data set [5] in a line: Hippocampal concentrations after a single oral dose (24 h study). The settings on record: single oral dose 20 mg/kg. The format is in vivo, Sprague Dawley rats. The protocol: as §1
(§2) Samples were submitted to the W.M. Keck Metabolomics Research Laboratory (Office of Biotechnology, Iowa State University, Ames, IA) for targeted saracatinib LC–MS/MS quantification. Serum and hippocampus preparations were conducted using a modified version of the previously available extraction and sample preparation methods previously established ([18], [19]). 50–75 μL or 50–75 mg wet weight of each sample was added to microcentrifuge tubes. […]

The test system of data set [6] is organophosphate (OP) induced epilepsy models. On the set-up: method as in PMID 35052568. Conditions: treatment for a week; cited from earlier work.
In a further data set the test system is ABCB1. On the set-up: method as in PMID 22623106. Conditions: cited from earlier work.
Data set [7] can be described thus: 7-day repeated daily oral dosing study: serum and hippocampal concentrations. The format is in vivo, Sprague Dawley rats. As to the method: as §1, §2
Where [8] appears, read: male, Sprague Dawley, single oral dose 20 mg/kg, rat serum, median, n=4.

Turning to `CN1CCN(CCOc2cc(OC3CCOCC3)c3c(Nc4c(Cl)ccc5c4OCO5)ncnc3c2)CC1` [saracatinib, Saracatinib], the “Long-term effects (reactive gliosis, neurodegeneration, epileptiform spiking, spontaneously recurring seizures)” value in data set [1] was “sufficient to mitigate long-term effects”. The “Time saracatinib was detected in the serum” value in data set [2] (after a single oral dose 20 mg/kg) is “up to 24 h”. The time to peak (Tmax) in data set [2] (male, Sprague Dawley, rat, serum, po, 20 mg/kg, single oral dose 20 mg/kg, rat serum, median, n=4) was found to be 6 h. Besides, the AUC(0-t) in data set [2] (male, Sprague Dawley, single oral dose 20 mg/kg, rat serum, 0 to 24 h, median, n=4, read-out: AUC (0-tlast)) is 6990 ng·h/mL. For the same compound, in data set [2] (setting [8]), the total exposure AUC(0-inf) is 7060 ng·h/mL, the apparent clearance CL/F is 47.2 mL/min/kg, the peak concentration (Cmax) was 954 ng/mL and the Vd/F turned out to be 15.6 L/kg. In data set [2] (setting [8]), the half-life was 4.12 h and the k el was 5e-05 s⁻¹. The “Time stable at room temperature” value in data set [3] was above 4 weeks. The “Stability at room temperature (percent)” value in data set [3] (>4 weeks) worked out at 97 ± 1.56%. Besides, in data set [4], the T1/2 was 40 h and the Tolerability entry is given as “well tolerated”. Besides, the concentration at 4 h in data set [5] (male, Sprague Dawley, rat, hippocampus, 4 h, read-out: Hippocampal level) is above 500 ng/g. In addition, in data set [5] (4 h and 24 h), the “Hippocampal versus serum concentrations” value was “higher than the serum concentrations”. In addition, the “Hippocampal concentration at 24 h compared to 4 h” value in data set [5] (24 h) is “dropped to nearly half”. Besides, in data set [6], the Protective effects entry is “limited”. In addition, the “Effect on ABCB1” value with ABCB1 was “only inhibits ABCB1 transport function, without altering ABCB1 expression or AKT phosphorylation”. In addition, the concentration at 3 day in data set [7] (male, Sprague Dawley, rat, hippocampus, repeated oral dosing 20 mg/kg/day, day 3, read-out: Hippocampal saracatinib concentration) worked out at 239 ± 143 ng/g. Also, the concentration at 7 day in data set [7] (male, Sprague Dawley, rat, hippocampus, repeated oral dosing 20 mg/kg/day, day 7, read-out: Hippocampal saracatinib concentration) was 271 ± 62.3 ng/g. For the same compound, the “Serum saracatinib concentration (trough, 24 h after dose)” value in data set [7] (repeated daily oral dosing 20 mg/kg, first three days) is given as ~ 100 ng/mL.
